Data: patent publication US6897049B1, “Proteins producing an altered immunogenic response and methods of making and using the same” (Genencor International, Inc., priority 1998, dated 2005)

Key:
HLA DQ2 molecules = experiment: In vitro binding assays using EBV-transformed B cell lines; parameters: species or system human
naïve human CD4+ T-cells = experiment: T-cell proliferation assay with differentiated dendritic cells and naïve human CD4+ T-cells (tritium incorporation); type: cell-based; details: for T-cell epitope discovered: naïve donors, positive if response at least 3 times baseline
Experimental: Fresh human peripheral blood cells were collected from “naïve” humans, i.e., persons not known to be exposed to or sensitized to Bacillus lentus protease, for determination of antigenic epitopes in protease from Bacillus lentus and human subtilisin. Naïve humans is intended to mean that the individual is not known to have been exposed to or developed a reaction to protease in the past. Peripheral mononuclear blood cells (stored at room temperature, no older than 24 hours) were prepared for use as follows: Approximately 30 mls of a solution of buffy coat preparation from one unit of whole blood was brought to 50 ml with Dulbecco's phosphate buffered solution (DPBS) and split into two tubes. The samples were underlaid with 12.5 ml of room temperature lymphoprep density separation media (Nycomed density 1.077 g/ml). The tubes were centrifuged for thirty minutes at 600 G. The interface of the two phases was collected, pooled and washed in DPBS. The cell density of the resultant solution was measured by hemocytometer. Viability was measured by trypan blue exclusion.
From the resulting solution, a differentiated dendritic cell culture was prepared from the peripheral blood mononuclear cell sample having a density of 10^8 cells per 75 ml culture flask in a solution as follows: • (1) 50 ml of serum free AIM V media (Gibco) was supplemented with a 1:100 dilution beta-mercaptoethanol (Gibco). The flasks were laid flat for two hours at 37° C. in 5% CO2 to allow adherence of monocytes to the flask wall. • (2) Differentiation of the monocyte cells to dendritic cells was as follows: nonadherent cells were removed and the resultant adherent cells (monocytes) combined with 30 ml of AIM V, 800 units/ml of GM-CSF (Endogen) and 500 units/ml of IL-4 (Endogen); the resulting mixture was cultured for 5 days under conditions at 37° C. in 5% CO2. […] Adherent and non-adherent cells were then centrifuged at 600 G for 5 minutes, washed in DPBS and counted. • (4) The prepared dendritic cells were placed into a 96 well round bottom array at 2×10^4/well in 100 microliter total volume of AIM V media.
CD4+ T cells were prepared from frozen aliquots of the peripheral blood cell samples used to prepare the dendritic cells using the human CD4+ Cellect Kit (Biotex) as per the manufacturers instructions with the following modifications: the aliquots were thawed and washed such that approximately […] will be applied per Cellect column; the cells were resuspended in 4 ml DPBS and 1 ml of the Cell reagent from the Cellect Kit, the solution maintained at room temperature for 20 minutes. […] The resultant CD4+ cell solution was centrifuged, resuspended in AIMV media and the density counted. […]

[1] = test system: T-cells of an individual known to be hypersensitive to Bacillus lentus protease; experiment: T-cell response to peptides in a sample from an individual hypersensitive to Bacillus lentus protease; type: cell-based, human
From the text: Peptide E05 represents the region corresponding to 170-173 in protease from Bacillus amyloliquefaciens.
Alanine substitutions were used as substitutions for the purpose of determining the role of any specific residue within the epitope. The legend of FIG. 10 refers to the position of the peptide in which an alanine was substituted, i.e., in peptide E06 (sequence GSISYPARYANAMAV (SEQ ID NO: 210)), G to A=2, S to A=3, I to A=4, S to A=5, Y to A=6, P to A=7, R to A=8, Y to A=9, N to A=10, M to A=11 and V to A=12.

With “70-84: BPN′ peptide of region 70-84, human T cell epitope (GTVAALNNSIGVLGV; UniProt P00782 177-191, looked up, fragment) [Peptide 70-84]” the “binding to HLA DQ2 molecules” value (HLA DQ2 molecules) was “bound”.
With “109-123: BPN′ peptide of region 109-123, human T cell epitope (NGIEWAIANNMDVIN; UniProt P00782 216-230, looked up, fragment) [Peptide 109-123]” the “binding to HLA DQ2 molecules” value (HLA DQ2 molecules) was “bound”.
With “A01: peptide derived from Humicola insolens cellulase (Carezyme); legend: A02, residues 70-84 (PGGVAYSCADQTPWA) [Peptide A01]” the T-cell epitope discovered (naïve human CD4+ T-cells) was “T-cell epitopes were discovered”.
In the case of “A12: peptide derived from Thermomyces lanuginosa lipase (Lipolase); legend: B02, residues 83-100 (GDVTGFLALDNTNKLIVL) [Peptide A12]”, the T-cell epitope discovered (naïve human CD4+ T-cells) is reported as “T-cell epitopes were discovered”.
“F06: peptide of Humicola insolens endogluconase, residues 37-51 (SEQ ID NO: 223) (CGWAKKAPVNQPVFS) [Peptide F06]” was tested, and the T-cell epitope discovered (naïve human CD4+ T-cells) was “T-cell epitopes were discovered”.
With “GSISYPARYANAMAV [Peptide E05, Bacillus lentus protease peptide with region corresponding to 170-173 of B. amyloliquefaciens protease]” the “immunogenic response (T-cell proliferation) to peptide” value (naïve human CD4+ T-cells; naïve blood samples from unsensitized individuals, response relative to baseline) was “marked allergenic response” and the “T-cell response to peptide” value [1] was “highly responsive”.
